In one experiment the test system is Wild buckwheat. Nature of the experiment: Ex12 PRE 2,4-DC + dimethenamid-P, % control 28 DAT, Colby. In kind it is in vivo, Polygonum convolvulus. How it is done: (§1) The tested weeds include: wild buckwheat (Polygonum convolvulus, POLCO), velvetleaf (Abutilon theophrasti, ABUTH), cheat (Bromus secalinus, BROSE), wild oat (Avena fatua, AVEFA), radish (Raphanus sativus, RAPSN), corn poppy (Papaver rhoeas, PAPRH), yellow foxtail (Setaria pumila, SETLU), Italian ryegrass (Lolium perenne ssp. multiflorum, LOLMU). The tested crop was Oilseed rape.
(§2) This greenhouse study was conducted to assess the preemergence (PRE) weed control and oilseed rape tolerance with 2,4 DC (CS 36.7%) and dimethenamid-P (Outlook®, 63.9%) tank-mix combinations.
(§3) Metazachlor (Butisan, 43.1%) plus dimethenamid-P applied as tank mix at 500 g each was applied as commercial standard. Treatments were replicated 3 times and flats were watered after planting but before the treatment and then lightly watered after treatment application. Thereafter flats were watered and fertilized routinely.

The next experiment deals with Wild oat. Described as above. In kind it is in vivo, Avena fatua. How it is done:
as §1, §2, §3

The test system of experiment [1] is weeds. Nature of the experiment: Ex20 PRE greenhouse. The following applies: weed and rate in the words. Type of experiment: in vivo. From the text: Herbicides: • 2,4 DC-21 (36.7% CS): 125, 170, 210, or 250 g ai/ha alone and as tank-mix with dimethenamid-P • Dimethanamid-P (Outlook, 63.9%): 250, 375, 500 g ai/ha in combination with 2,4 DC and alone, additional treatment alone at 750 g ai/ha. • Metazachlor (Butisan 43.1%): 500 g ai/ha
Herbicides included as standards for comparison were metazachlor plus dimethenamid-P (500 g) as tank mix combination. […] Treatments were replicated 3 times. […] Thereafter flats were watered and fertilized routinely.

A further experiment deals with Common ragweed. Kind of experiment: Ex16 PRE 2,4-DC + pyroxasulfone, % control 28 DAT, Colby. In kind it is in vivo, Ambrosia artemisiifolia. From the text: (§4) To determine PRE efficacy, five levels of 2,4 DC (36.7% CS) 0, 125, 170, 210, or 250 g ai/ha and five levels of pyroxasulfone (KIH485-85WG) 0, 50, 65, 80, or 95 g ai/ha were applied either alone or as tank-mix. Additional treatments consisted of premix of pyroxasulfone plus fluthiacet-methyl (Anthem™ 23.3%) at 169.9 g ai/ha, S-metolachlor (Dual II Magnum, 82.4%) at 1388 g, and tank-mix of mesotrione (Callisto, 40%) at 123 g plus S-metolachlor at 1252 g. […] Treatments were applied before the emergence of black nightshade, giant foxtail, green foxtail, yellow foxtail, large crabgrass, kochia, redroot pigweed, common ragweed, and barnyardgrass.
(§5) Flats were watered and fertilized routinely after treatment application. Each treatment was replicated three times.

The next experiment relates to Morningglory sp. Nature of the experiment: Ex38 PRE 2,4-DC + pyroxasulfone, % control 28 DAT, Colby. Type of experiment: in vivo, Ipomea spp. To be noted: PRE. From the text: Pyroxasulfone plus fluthiacet-methyl (ANTHEM™, 23.3%) applied at 165 g ai/ha was included as a standard for comparison. […] Thereafter flats were watered and fertilized routinely.
The subject of experiment [2] is weeds; Wheat, barley, and oil seed rape (OSR). Nature of the experiment: Ex19 PRE greenhouse. Type of experiment: in vivo. To be noted: rate in the words. The source says: In this study, the crops tested included Wheat, barley, and oil seed rape (OSR).
To determine weed efficacy and wheat, barley or OSR selectivity, 2,4 DC (CS 36.7%) and Diflufenican (CS 19.5%) were applied preemergence either alone or as tank-mix partners at the following rates. 2,4 DC was applied at 125, 170, 210 and 250 g ai/ha while Diflufenican was applied at 50, 75, and 100 g ai/ha. Pyroxasulfone (KIH-485, 85%) at 74.3 g ai/ha, pendimethalin (Prowl 3.3EC, 37.4%) at 1200 g ai/ha, or a premix of chlorsulfuron plus metsulfuron-methyl (Report Extra, 75%) at 15.8 g ai/ha were applied as commercial standards.
Herbicides included as standards for comparison were pyroxasulfone, pendimethalin, and a pre mix of chlorsulfuron plus metsulfuron methyl, all applied at labeled rates as indicated above. Treatments were replicated 3 times. […] Thereafter flats were watered and fertilized routinely.

Experiment [3] relates to weeds. Nature of the experiment: Ex13 PRE greenhouse. In kind it is in vivo. To be noted: 28 DAT, weed and rate in the words. The source says: Pyroxasulfone (KIH-485, 85%) at 74.3 g ai/ha, pendimethalin (Prowl 3.3EC, 37.4%) at 1200 g ai/ha, or a premix of chlorsulfuron plus metsulfuron-methyl (Report Extra, 75%) at 15.8 g ai/ha were applied as commercial standards. […] Treatments were replicated 3 times and flats were watered after planting before the treatment and lightly watered after treatment application. Thereafter flats were watered and fertilized routinely.

In experiment [4] the test system is weeds. Kind of experiment: Ex24 PRE greenhouse. Type of experiment: in vivo. To be noted: weed and rate in the words.
From the text: The tested weeds include Giant foxtail (Setaria faberi, SETFA), green foxtail (Setaria virdis, SETVI), yellow foxtail (Setaria pumila, SETLU), black nightshade (Solanum nigrum, SOLNI), kochia (Kochia scoparia, KCHSC), redroot pigweed (Amaranthus retroflexus, AMARE), common ragweed (Ambrosia artemisiifolia, AMBEL), barnyardgrass (Echinochloa crus-galli, ECHCG), large crabgrass (Digitaria sanguinalis, DIGSA).
as §4, with “DC-21” for “DC”, “Magnum®,” for “Magnum,”, “(Callisto®,” for “(Callisto,”, “bamyardgrass. […] Flats were watered and fertilized routinely after treatment application. Each treatment was replicated three times.” for “barnyardgrass.”

In experiment [5] the test system is weeds. Kind of experiment: Ex16 PRE greenhouse. Type of experiment: in vivo. To be noted: weed and rate in the words.
From the text: as §4, §5

The mark [6] stands for this setting: dimethenamid-P alone 250 g ai/ha.
The mark [7] stands for this setting: dimethenamid-P alone 375 g ai/ha.
[8] abbreviates: dimethenamid-P alone 500 g ai/ha.

As for `COC[C@H](C)N(C(=O)CCl)c1c(C)csc1C` [Dimethenamid-P, dimethenamid-P, reference compound], the Y turned out to be 32% with Wild buckwheat (setting [6]); 70% in the experiment with Wild buckwheat (setting [7]); 63% in the experiment on Wild buckwheat (setting [8]); 66% with Wild oat (setting [6]); 73% with Wild oat (setting [7]); 90% in the experiment on Wild oat (setting [8]). Besides, in the experiment with weeds [1], the “weed control in words” value was “alone controlled redroot pigweed, giant foxtail, and goosegrass at all rates; common chickweed at ≥375 g; shepherd's-purse at ≥500 g; and Canada thistle at 750 g”.
Take `Cn1nc(C(F)(F)F)c(CS(=O)(=O)C2=NOC(C)(C)C2)c1OC(F)F` [Pyroxasulfone, pyroxasulfone, reference compound]: the Y in the experiment on Common ragweed (pyroxasulfone alone 50 g ai/ha) is given as 40%; in the experiment with Common ragweed (pyroxasulfone alone 65 g ai/ha) it was 53%; with Common ragweed (pyroxasulfone alone 80 g ai/ha) it was 40%; with Common ragweed (pyroxasulfone alone 95 g ai/ha), 70%. The “Y (% control, pyroxasulfone alone)” value with Morningglory sp. (pyroxasulfone 30 g ai/ha) is 9%; with Morningglory sp. (pyroxasulfone 60 g ai/ha), 60%; with Morningglory sp. (pyroxasulfone 90 g ai/ha), 65%. Moreover, in experiment [2], the “weed control / crop safety in words” value is “controlled all weeds except field violet and was safe on wheat only”. The “weed control in words” value was “at 74.3 g controlled all weeds except tall morningglory and shepherd's-purse” with weeds [3]; “controlled all species except common ragweed which was not controlled at any rate” in the experiment with weeds [4]; “controlled all species except common ragweed which was not controlled at any rate” with weeds [5].
